Assay results as given in ChEMBL document CHEMBL3885881, “DrugMatrix”.

Organism: Rattus norvegicus
Assay: DrugMatrix - Regimen: Daily Repeat
Format: toxicity, organism-based, Sprague-Dawley
Parameters: regimen Daily Repeat, gender Male, age 6-8 weeks
Conditions: in vivo, po, route oral GAVAGE, vehicle .5 % CMC; for ABSOLUTE BASOPHIL / ABSOLUTE EOSINOPHIL / ABSOLUTE LYMPHOCYTE / ABSOLUTE MONOCYTE / ABSOLUTE SEGMENTED NEUTROPHIL / BASOPHIL / EOSINOPHIL / ERYTHROCYTE COUNT / HEMATOCRIT / HEMOGLOBIN / LEUKOCYTE COUNT / LYMPHOCYTE / MEAN CORPUSCULAR HEMOGLOBIN / MEAN CORPUSCULAR HEMOGLOBIN CONCENTRATION / MEAN CORPUSCULAR VOLUME / MONOCYTE / NEUTROPHIL / NUCLEATED RED BLOOD CELLS / PLATELET COUNT: tissue Blood; for ALANINE AMINOTRANSFERASE / ALBUMIN / ALKALINE PHOSPHATASE / ASPARTATE AMINOTRANSFERASE / BLOOD UREA NITROGEN / CARBON DIOXIDE / CHLORIDE / CHOLESTEROL / CREATINE PHOSPHOKINASE / CREATININE / GLUCOSE / LACTATE DEHYDROGENASE / LIPASE / PHOSPHORUS / POTASSIUM / SODIUM / TOTAL BILIRUBIN / TOTAL PROTEIN / URIC ACID: tissue Plasma
[1] = 0 mg/kg, 72 h, dose level Control, time 3 day
[2] = 0 mg/kg, 120 h, dose level Control, time 5 day
[3] = 29 mg/kg, 72 h, dose level Low, time 3 day

In the case of `NC(=O)NC(=O)Cc1ccccc1` [PHENACEMIDE], the “ABSOLUTE BASOPHIL” value [1] is reported as 0 CELLS/uL, the “ABSOLUTE EOSINOPHIL” value [1] is reported as 15.17 CELLS/uL and the “ABSOLUTE LYMPHOCYTE” value [1] is reported as 10149.83 CELLS/uL. For the same compound, the “ABSOLUTE MONOCYTE” value [1] was 193.33 CELLS/uL, the “ABSOLUTE SEGMENTED NEUTROPHIL” value [1] was 1575 CELLS/uL and the BASOPHIL [1] was 0%. The EOSINOPHIL [1] was 0.17%, the “ERYTHROCYTE COUNT” value [1] was 5.53 x10E6/uL and the HEMATOCRIT [1] was 34.7%. The HEMOGLOBIN [1] was 12.78 G/DL, the “LEUKOCYTE COUNT” value [1] was 11.93 x10E3/uL and the LYMPHOCYTE [1] was 85.5%. The “MEAN CORPUSCULAR HEMOGLOBIN” value [1] was 23.15 pg, the “MEAN CORPUSCULAR HEMOGLOBIN CONCENTRATION” value [1] was 36.9 G/DL and the “MEAN CORPUSCULAR VOLUME” value [1] was 62.82 fL. The MONOCYTE [1] was 1.5%, the NEUTROPHIL [1] was 12.83% and the “NUCLEATED RED BLOOD CELLS” value [1] was 0.5 /100WBC. The “PLATELET COUNT” value [1] was 994.17 x10E3/uL, the “ALANINE AMINOTRANSFERASE” value [1] was 48.17 u/L and the ALBUMIN [1] was 4.37 G/DL. The “ALKALINE PHOSPHATASE” value [1] was 436.5 u/L, the “ASPARTATE AMINOTRANSFERASE” value [1] was 83.17 u/L and the “BLOOD UREA NITROGEN” value [1] was 14.67 mg/dL. For the same compound, the “CARBON DIOXIDE” value [1] was 30.83 mmol/L, the CHLORIDE [1] was 99.17 MEQ/L and the CHOLESTEROL [1] was 86.33 mg/dL. The “CREATINE PHOSPHOKINASE” value [1] was 243.33 u/L, the CREATININE [1] was 0.25 mg/dL and the GLUCOSE [1] was 158 mg/dL. For the same compound, the “LACTATE DEHYDROGENASE” value [1] was 262.33 u/L, the LIPASE [1] was 11 u/L and the PHOSPHORUS [1] was 12.07 mg/dL. The POTASSIUM [1] was 6.52 MEQ/L, the SODIUM [1] was 142.45 MEQ/L and the “TOTAL BILIRUBIN” value [1] was 0.17 mg/dL. For the same compound, the “TOTAL PROTEIN” value [1] was 6.25 G/DL, the “URIC ACID” value [1] was 1.42 mg/dL and the “ABSOLUTE BASOPHIL” value [2] was 0 CELLS/uL. The “ABSOLUTE EOSINOPHIL” value [2] was 0 CELLS/uL, the “ABSOLUTE LYMPHOCYTE” value [2] was 10076.67 CELLS/uL and the “ABSOLUTE MONOCYTE” value [2] was 124 CELLS/uL. For the same compound, the “ABSOLUTE SEGMENTED NEUTROPHIL” value [2] was 966 CELLS/uL, the BASOPHIL [2] was 0% and the EOSINOPHIL [2] was 0%. For the same compound, the “ERYTHROCYTE COUNT” value [2] was 5.57 x10E6/uL, the HEMATOCRIT [2] was 33.37% and the HEMOGLOBIN [2] was 12.73 G/DL. For the same compound, the “LEUKOCYTE COUNT” value [2] was 11.17 x10E3/uL, the LYMPHOCYTE [2] was 90.33% and the “MEAN CORPUSCULAR HEMOGLOBIN” value [2] was 22.9 pg. The “MEAN CORPUSCULAR HEMOGLOBIN CONCENTRATION” value [2] was 38.18 G/DL, the “MEAN CORPUSCULAR VOLUME” value [2] was 59.97 fL and the MONOCYTE [2] was 1%. For the same compound, the NEUTROPHIL [2] was 8.67%, the “NUCLEATED RED BLOOD CELLS” value [2] was 0 /100WBC and the “PLATELET COUNT” value [2] was 1078 x10E3/uL. The “ALANINE AMINOTRANSFERASE” value [2] was 37.17 u/L, the ALBUMIN [2] was 4.2 G/DL and the “ALKALINE PHOSPHATASE” value [2] was 322.17 u/L. The “ASPARTATE AMINOTRANSFERASE” value [2] was 67.67 u/L, the “BLOOD UREA NITROGEN” value [2] was 14 mg/dL and the “CARBON DIOXIDE” value [2] was 27.67 mmol/L. The CHLORIDE [2] was 102.17 MEQ/L, the CHOLESTEROL [2] was 67.67 mg/dL and the “CREATINE PHOSPHOKINASE” value [2] was 171.83 u/L. For the same compound, the CREATININE [2] was 0.27 mg/dL, the GLUCOSE [2] was 172 mg/dL and the “LACTATE DEHYDROGENASE” value [2] was 85.33 u/L. It also gave an LIPASE [2] of 8.67 u/L, a PHOSPHORUS [2] of 12 mg/dL and a POTASSIUM [2] of 6.09 MEQ/L. The SODIUM [2] was 144.82 MEQ/L, the “TOTAL BILIRUBIN” value [2] was 0.13 mg/dL and the “TOTAL PROTEIN” value [2] was 6.07 G/DL. For the same compound, the “URIC ACID” value [2] was 2.13 mg/dL, the “ABSOLUTE BASOPHIL” value [3] was 0 CELLS/uL and the “ABSOLUTE EOSINOPHIL” value [3] was 0 CELLS/uL. For the same compound, the “ABSOLUTE LYMPHOCYTE” value [3] was 6638.67 CELLS/uL, the “ABSOLUTE MONOCYTE” value [3] was 81.67 CELLS/uL and the “ABSOLUTE SEGMENTED NEUTROPHIL” value [3] was 1179.67 CELLS/uL. For the same compound, the BASOPHIL [3] was 0%, the EOSINOPHIL [3] was 0% and the “ERYTHROCYTE COUNT” value [3] was 4.84 x10E6/uL. The HEMATOCRIT [3] was 29.67%, the HEMOGLOBIN [3] was 11.57 G/DL and the “LEUKOCYTE COUNT” value [3] was 7.9 x10E3/uL. The LYMPHOCYTE [3] was 84%, the “MEAN CORPUSCULAR HEMOGLOBIN” value [3] was 23.9 pg and the “MEAN CORPUSCULAR HEMOGLOBIN CONCENTRATION” value [3] was 39 G/DL. For the same compound, the “MEAN CORPUSCULAR VOLUME” value [3] was 61.37 fL, the MONOCYTE [3] was 1% and the NEUTROPHIL [3] was 15%. For the same compound, the “NUCLEATED RED BLOOD CELLS” value [3] was 0.67 /100WBC, the “PLATELET COUNT” value [3] was 982 x10E3/uL and the “ALANINE AMINOTRANSFERASE” value [3] was 51 u/L. For the same compound, the ALBUMIN [3] was 4.1 G/DL, the “ALKALINE PHOSPHATASE” value [3] was 430.67 u/L and the “ASPARTATE AMINOTRANSFERASE” value [3] was 87.33 u/L. The “BLOOD UREA NITROGEN” value [3] was 15.67 mg/dL, the “CARBON DIOXIDE” value [3] was 30 mmol/L and the CHLORIDE [3] was 101 MEQ/L. For the same compound, the CHOLESTEROL [3] was 78.67 mg/dL, the “CREATINE PHOSPHOKINASE” value [3] was 358 u/L and the CREATININE [3] was 0.27 mg/dL. For the same compound, the GLUCOSE [3] was 152.67 mg/dL, the “LACTATE DEHYDROGENASE” value [3] was 97 u/L and the LIPASE [3] was 9.67 u/L. The PHOSPHORUS [3] was 12.5 mg/dL, the POTASSIUM [3] was 6.3 MEQ/L and the SODIUM [3] was 145.1 MEQ/L. The “TOTAL BILIRUBIN” value [3] was 0.13 mg/dL, the “TOTAL PROTEIN” value [3] was 5.83 G/DL and the “URIC ACID” value [3] was 0.97 mg/dL.
